Test results from US20230322761A1, “DEGRADATION OF BRUTON'S TYROSINE KINASE (BTK) BY CONJUGATION OF BTK INHIBITORS WITH E3 LIGASE LIGAND AND METHODS OF USE” (BEIGENE, LTD., priority 2020, published 2023).
Structures can show the parent of a compound that is named as a salt.

Molecular target: T1, BTK (Homo sapiens, UniProt Q06187)
T1 construct: endogenous in cells; host or cells: TMD-8 cells
Test: BTK degradation in TMD-8 cells, HTRF assay after 6 h treatment
Assay type: cell-based
Details: IC50 (DC50) of BTK degradation
Outline: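 Remaining BTK was quantified by HTRF in lysates of TMD-8 cells after 6 h exposure to an 8-point, 6-fold compound series (500× stocks in DMSO starting at 1 mM; 0.2% DMSO). Lysis 30 min, antibodies overnight at room temperature, ratio read at 665/620 nm; DC50 fitted with a four-parameter logistic equation.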

T1 sequence (Q06187 whole entry): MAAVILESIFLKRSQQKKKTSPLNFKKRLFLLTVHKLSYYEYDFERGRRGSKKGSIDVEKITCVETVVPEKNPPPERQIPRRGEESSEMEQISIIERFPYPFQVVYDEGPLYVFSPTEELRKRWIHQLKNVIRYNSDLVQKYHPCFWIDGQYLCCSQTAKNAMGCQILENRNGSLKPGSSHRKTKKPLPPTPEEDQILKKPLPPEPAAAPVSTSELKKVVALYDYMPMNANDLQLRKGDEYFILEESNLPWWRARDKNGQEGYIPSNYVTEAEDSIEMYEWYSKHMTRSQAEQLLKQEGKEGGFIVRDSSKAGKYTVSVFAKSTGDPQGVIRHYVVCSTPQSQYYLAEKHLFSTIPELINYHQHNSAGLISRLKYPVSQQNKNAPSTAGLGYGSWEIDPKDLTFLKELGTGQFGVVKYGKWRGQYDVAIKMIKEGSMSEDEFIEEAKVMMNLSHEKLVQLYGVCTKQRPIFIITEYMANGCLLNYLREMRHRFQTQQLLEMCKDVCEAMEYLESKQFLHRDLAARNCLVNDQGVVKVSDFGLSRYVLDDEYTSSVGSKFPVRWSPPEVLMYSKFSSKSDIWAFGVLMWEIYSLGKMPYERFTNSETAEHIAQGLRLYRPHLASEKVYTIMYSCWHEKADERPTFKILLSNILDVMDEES

Structure (SMILES) | DC50 [nM] | DC50 (formate) [nM]
COc1cc(N2CCC(CCN3CCN(c4ccc(-c5cnc6[nH]nc(-c7ccc([C@@H](C)NC(=O)c8noc(C(C)(C)C)n8)c(C)c7)c6c5)cc4)CC3)CC2)ccc1C1CCC(=O)NC1=O (stereo partly drawn) [Example 169, 5-(tert-butyl)-N-((1R)-1-(4-(5-(4-(4-(2-(1-(4-(2,6-dioxopiperidin-3-yl)-3-methoxyphenyl)piperidin-4-yl)ethyl)piperazin-1-yl)phenyl)-1H-pyrazolo[3,4-b]pyridin-3-yl)-2-methylphenyl)ethyl)-1,2,4-oxadiazole-3-carboxamide] | 15.1 | –
Cc1cc(-c2n[nH]c3ncc(-c4ccc(N5CC6CC5CN6CCc5ccc(C6CCC(=O)NC6=O)c(C)n5)cn4)cc23)ccc1[C@@H](C)NC(=O)c1noc(C(C)(C)C)n1 (stereo partly drawn) [Example 170, 5-(tert-butyl)-N-((1R)-1-(4-(5-(5-(5-(2-(5-(2,6-dioxopiperidin-3-yl)-6-methylpyridin-2-yl)ethyl)-2,5-diazabicyclo[2.2.1]heptan-2-yl)pyridin-2-yl)-1H-pyrazolo[3,4-b]pyridin-3-yl)-2-methylphenyl)ethyl)-1,2,4-oxadiazole-3-carboxamide] | 4.77 | –
COc1cc(N2CCC(=O)NC2=O)ccc1N1CCC(CN2CCN(c3ccc(-c4cnc5[nH]nc(-c6ccc([C@@H](C)NC(=O)c7noc(C(C)(C)C)n7)c(C)c6)c5c4)cc3)CC2)CC1 [Example 171, (R)-5-(tert-butyl)-N-(1-(4-(5-(4-(4-((1-(4-(2,4-dioxotetrahydropyrimidin-1(2H)-yl)-2-methoxyphenyl)piperidin-4-yl)methyl)piperazin-1-yl)phenyl)-1H-pyrazolo[3,4-b]pyridin-3-yl)-2-methylphenyl)ethyl)-1,2,4-oxadiazole-3-carboxamide] | 3.52 | –
Cc1cc(-c2n[nH]c3ncc(-c4ccc(N5CCN(CC6CCN(c7ccc(N8CCC(=O)NC8=O)c(C)c7)CC6)CC5)cc4)cc23)ccc1[C@@H](C)NC(=O)c1cc(C(C)(C)C)on1 [Example 172, (R)-5-(tert-butyl)-N-(1-(4-(5-(4-(4-((1-(4-(2,4-dioxotetrahydropyrimidin-1(2H)-yl)-3-methylphenyl)piperidin-4-yl)methyl)piperazin-1-yl)phenyl)-1H-pyrazolo[3,4-b]pyridin-3-yl)-2-methylphenyl)ethyl)isoxazole-3-carboxamide] | 20.8 | –
Cc1cc(CCN2CC3CC2CN3c2ccc(-c3cnc4[nH]nc(-c5ccc([C@@H](C)NC(=O)c6noc(C(C)(C)C)n6)c(C)c5)c4c3)nc2)ncc1C1CCC(=O)NC1=O (stereo partly drawn) [Example 173, 5-(tert-butyl)-N-((1R)-1-(4-(5-(5-(5-(2-(5-(2,6-dioxopiperidin-3-yl)-4-methylpyridin-2-yl)ethyl)-2,5-diazabicyclo[2.2.1]heptan-2-yl)pyridin-2-yl)-1H-pyrazolo[3,4-b]pyridin-3-yl)-2-methylphenyl)ethyl)-1,2,4-oxadiazole-3-carboxamide] | > 2000 | –
Cc1cc(-c2n[nH]c3ncc(-c4ccc(N5CC6CN(CCc7ccc(C8CCC(=O)NC8=O)cc7)CC6C5)cn4)cc23)ccc1[C@@H](C)NC(=O)c1noc(C(C)(C)C)n1 (stereo partly drawn) [Example 174, 5-(tert-butyl)-N-((1R)-1-(4-(5-(5-(5-(4-(2,6-dioxopiperidin-3-yl)phenethyl)hexahydropyrrolo[3,4-c]pyrrol-2(1H)-yl)pyridin-2-yl)-1H-pyrazolo[3,4-b]pyridin-3-yl)-2-methylphenyl)ethyl)-1,2,4-oxadiazole-3-carboxamide] | 1.68 | –
Cc1cc(-c2n[nH]c3ncc(-c4ccc(N5CCN(CC(F)(F)c6ccc(C7CCC(=O)NC7=O)cc6)CC5)cc4)cc23)ccc1[C@@H](C)NC(=O)c1noc(C(C)(C)C)n1 (stereo partly drawn) [Example 175, 5-(tert-butyl)-N-((1R)-1-(4-(5-(4-(4-(2-(4-(2,6-dioxopiperidin-3-yl)phenyl)-2,2-difluoroethyl)piperazin-1-yl)phenyl)-1H-pyrazolo[3,4-b]pyridin-3-yl)-2-methylphenyl)ethyl)-1,2,4-oxadiazole-3-carboxamide] | 8.39 | –
Cc1cc(-c2n[nH]c3ncc(-c4ccc(N5CCN(C6CC(c7ccc(C8CCC(=O)NC8=O)cc7)C6)CC5)cc4)cc23)ccc1[C@@H](C)NC(=O)c1noc(C(C)(C)C)n1 (stereo partly drawn) [Example 176, 5-(tert-butyl)-N-((1R)-1-(4-(5-(4-(4-(3-(4-(2,6-dioxopiperidin-3-yl)phenyl)cyclobutyl)piperazin-1-yl)phenyl)-1H-pyrazolo[3,4-b]pyridin-3-yl)-2-methylphenyl)ethyl)-1,2,4-oxadiazole-3-carboxamide formate] | – | 1.89
Cc1nc(CCN2CCN(c3ccc(-c4cnc5[nH]nc(-c6ccc([C@@H](C)NC(=O)c7nc(C(C)(C)C)no7)c(CO)c6)c5c4)cc3)CC2)ccc1C1CCC(=O)NC1=O (stereo partly drawn) [Example 177, 3-(tert-butyl)-N-((1R)-1-(4-(5-(4-(4-(2-(5-(2,6-dioxopiperidin-3-yl)-6-methylpyridin-2-yl)ethyl)piperazin-1-yl)phenyl)-1H-pyrazolo[3,4-b]pyridin-3-yl)-2-(hydroxymethyl)phenyl)ethyl)-1,2,4-oxadiazole-5-carboxamide] | 3.47 | –
C[C@@H](NC(=O)c1noc(C(C)(C)C)n1)c1ccc(-c2n[nH]c3ncc(-c4ccc(N5CCN(CC6CCN(c7ccc(N8CCC(=O)NC8=O)cc7)CC6)CC5)nc4)cc23)cc1CO [Example 178, (R)-5-(tert-butyl)-N-(1-(4-(5-(6-(4-((1-(4-(2,4-dioxotetrahydropyrimidin-1(2H)-yl)phenyl)piperidin-4-yl)methyl)piperazin-1-yl)pyridin-3-yl)-1H-pyrazolo[3,4-b]pyridin-3-yl)-2-(hydroxymethyl)phenyl)ethyl)-1,2,4-oxadiazole-3-carboxamide] | 6.81 | –
Cc1cc(N2CCC(CN3CCN(c4ccc(-c5cnc6[nH]nc(-c7ccc([C@@H](C)NC(=O)c8noc(C(C)(C)C)n8)c(CO)c7)c6c5)cn4)CC3)CC2)ccc1N1CCC(=O)NC1=O [Example 179, (R)-5-(tert-butyl)-N-(1-(4-(5-(6-(4-((1-(4-(2,4-dioxotetrahydropyrimidin-1(2H)-yl)-3-methylphenyl)piperidin-4-yl)methyl)piperazin-1-yl)pyridin-3-yl)-1H-pyrazolo[3,4-b]pyridin-3-yl)-2-(hydroxymethyl)phenyl)ethyl)-1,2,4-oxadiazole-3-carboxamide] | 6.28 | –
Cc1cc(-c2n[nH]c3ncc(-c4ccc(N5CCN(C6CCN(c7ccc(NC8CCC(=O)NC8=O)cc7)CC6)CC5)cc4)cc23)ccc1[C@@H](C)NC(=O)c1noc(C(C)(C)C)n1 (stereo partly drawn) [Example 180, 5-(tert-butyl)-N-((1R)-1-(4-(5-(4-(4-(1-(4-((2,6-dioxopiperidin-3-yl)amino)phenyl)piperidin-4-yl)piperazin-1-yl)phenyl)-1H-pyrazolo[3,4-b]pyridin-3-yl)-2-methylphenyl)ethyl)-1,2,4-oxadiazole-3-carboxamide] | 4.81 | –
Cc1cc(-c2n[nH]c3ncc(-c4ccc(N5CCN(CCc6ccc([C@H]7CCC(=O)NC7=O)c(F)c6)CC5)cn4)cc23)ccc1[C@@H](C)NC(=O)c1noc(C(C)(C)C)n1 [Example 181, 5-(tert-butyl)-N—((R)-1-(4-(5-(5-(4-(4-((R)-2,6-dioxopiperidin-3-yl)-3-fluorophenethyl)piperazin-1-yl)pyridin-2-yl)-1H-pyrazolo[3,4-b]pyridin-3-yl)-2-methylphenyl)ethyl)-1,2,4-oxadiazole-3-carboxamide] | 1.24 | –
Cc1cc(-c2n[nH]c3ncc(-c4ccc(N5CCN(CCc6ccc([C@@H]7CCC(=O)NC7=O)c(F)c6)CC5)cn4)cc23)ccc1[C@@H](C)NC(=O)c1noc(C(C)(C)C)n1 [Example 182, 5-(tert-butyl)-N—((R)-1-(4-(5-(5-(4-(4-((S)-2,6-dioxopiperidin-3-yl)-3-fluorophenethyl)piperazin-1-yl)pyridin-2-yl)-1H-pyrazolo[3,4-b]pyridin-3-yl)-2-methylphenyl)ethyl)-1,2,4-oxadiazole-3-carboxamide] | 11.8 | –
Cc1cc(-c2n[nH]c3ncc(-c4ccc(N5CCC(COc6ccc(C7CCC(=O)NC7=O)cc6)CC5)cc4)cc23)ccc1[C@@H](C)NC(=O)c1noc(C(C)(C)C)n1 (stereo partly drawn) [Example 183, 5-(tert-butyl)-N-((1R)-1-(4-(5-(4-(4-((4-(2,6-dioxopiperidin-3-yl)phenoxy)methyl)piperidin-1-yl)phenyl)-1H-pyrazolo[3,4-b]pyridin-3-yl)-2-methylphenyl)ethyl)-1,2,4-oxadiazole-3-carboxamide] | 19.8 | –
Cc1cc(-c2n[nH]c3ncc(-c4ccc(N5CCN(CC6CCN(c7ccc(N8CCC(=O)NC8=O)cc7)CC6)CC5)cc4)cc23)ccc1[C@@H](C)NC(=O)c1noc(C2(CO)CC2)n1 [Example 184, (R)—N-(1-(4-(5-(4-(4-((1-(4-(2,4-dioxotetrahydropyrimidin-1(2H)-yl)phenyl)piperidin-4-yl)methyl)piperazin-1-yl)phenyl)-1H-pyrazolo[3,4-b]pyridin-3-yl)-2-methylphenyl)ethyl)-5-(1-(hydroxymethyl)cyclopropyl)-1,2,4-oxadiazole-3-carboxamide] | 14 | –
Cc1cc(-c2n[nH]c3ncc(-c4ccc(N5CCN(CC6CCN(c7ccc(N8CCC(=O)NC8=O)c(C)c7)CC6)CC5)cc4)cc23)ccc1[C@@H](C)NC(=O)c1noc(C2(CO)CC2)n1 [Example 185, (R)—N-(1-(4-(5-(4-(4-((1-(4-(2,4-dioxotetrahydropyrimidin-1(2H)-yl)-3-methylphenyl)piperidin-4-yl)methyl)piperazin-1-yl)phenyl)-1H-pyrazolo[3,4-b]pyridin-3-yl)-2-methylphenyl)ethyl)-5-(1-(hydroxymethyl)cyclopropyl)-1,2,4-oxadiazole-3-carboxamide] | 16.2 | –
Cc1cc(-c2n[nH]c3ncc(-c4ccc(N5CCN(CCn6cc(C7CCC(=O)NC7=O)cn6)CC5)cc4)cc23)ccc1[C@@H](C)NC(=O)c1noc(C(C)(C)C)n1 (stereo partly drawn) [Example 186, 5-(tert-butyl)-N-((1R)-1-(4-(5-(4-(4-(2-(4-(2,6-dioxopiperidin-3-yl)-1H-pyrazol-1-yl)ethyl)piperazin-1-yl)phenyl)-1H-pyrazolo[3,4-b]pyridin-3-yl)-2-methylphenyl)ethyl)-1,2,4-oxadiazole-3-carboxamide] | 1.61 | –
